The source made the active and inactive calls. The calls are words filed in the database; no cut-off is given here.
What was measured:
[1] = Tmax in mouse plasma at 2 mg/kg, iv measured up to 24 hrs by LC-MS/MS analysis; format: ADME, organism-based
[2] = AUC last in mouse plasma at 10 mg/kg, po measured up to 24 hrs by LC-MS/MS analysis; format: ADME, organism-based
[3] = Cmax in dog plasma at 1 mg/kg, iv measured up to 24 hrs by LC-MS/MS analysis; format: ADME, organism-based, Canis lupus familiaris
[4] = Half life in dog plasma at 1 mg/kg, iv measured up to 24 hrs by LC-MS/MS analysis; format: ADME, organism-based, Canis lupus familiaris
[5] = Clearance in dog plasma at 1 mg/kg, iv measured up to 24 hrs by LC-MS/MS analysis; format: ADME, organism-based, Canis lupus familiaris
[6] = Half life in dog plasma at 5 mg/kg, po measured up to 24 hrs by LC-MS/MS analysis; format: ADME, organism-based, Canis lupus familiaris
[7] = Oral bioavailability in dog plasma at 5 mg/kg measured up to 24 hrs by LC-MS/MS analysis; format: ADME, organism-based, Canis lupus familiaris
[8] = Tmax in monkey plasma at 1 mg/kg, iv measured up to 24 hrs by LC-MS/MS analysis; format: ADME, organism-based, Macaca mulatta; conditions: rhesus monkey
[9] = AUC last in monkey plasma at 1 mg/kg, iv measured up to 24 hrs by LC-MS/MS analysis; format: ADME, organism-based, Macaca mulatta; conditions: rhesus monkey, in vivo
[10] = biological target: hERG (KCNH2) (Homo sapiens, UniProt Q12809); assay: Inhibition of human ERG expressed in CHO cells at 30 uM by manual patch clamp assay relative to control; format: toxicity, cell-based; conditions: CHO cells expressing human ERG
hERG (KCNH2), sequence (Q12809 whole entry): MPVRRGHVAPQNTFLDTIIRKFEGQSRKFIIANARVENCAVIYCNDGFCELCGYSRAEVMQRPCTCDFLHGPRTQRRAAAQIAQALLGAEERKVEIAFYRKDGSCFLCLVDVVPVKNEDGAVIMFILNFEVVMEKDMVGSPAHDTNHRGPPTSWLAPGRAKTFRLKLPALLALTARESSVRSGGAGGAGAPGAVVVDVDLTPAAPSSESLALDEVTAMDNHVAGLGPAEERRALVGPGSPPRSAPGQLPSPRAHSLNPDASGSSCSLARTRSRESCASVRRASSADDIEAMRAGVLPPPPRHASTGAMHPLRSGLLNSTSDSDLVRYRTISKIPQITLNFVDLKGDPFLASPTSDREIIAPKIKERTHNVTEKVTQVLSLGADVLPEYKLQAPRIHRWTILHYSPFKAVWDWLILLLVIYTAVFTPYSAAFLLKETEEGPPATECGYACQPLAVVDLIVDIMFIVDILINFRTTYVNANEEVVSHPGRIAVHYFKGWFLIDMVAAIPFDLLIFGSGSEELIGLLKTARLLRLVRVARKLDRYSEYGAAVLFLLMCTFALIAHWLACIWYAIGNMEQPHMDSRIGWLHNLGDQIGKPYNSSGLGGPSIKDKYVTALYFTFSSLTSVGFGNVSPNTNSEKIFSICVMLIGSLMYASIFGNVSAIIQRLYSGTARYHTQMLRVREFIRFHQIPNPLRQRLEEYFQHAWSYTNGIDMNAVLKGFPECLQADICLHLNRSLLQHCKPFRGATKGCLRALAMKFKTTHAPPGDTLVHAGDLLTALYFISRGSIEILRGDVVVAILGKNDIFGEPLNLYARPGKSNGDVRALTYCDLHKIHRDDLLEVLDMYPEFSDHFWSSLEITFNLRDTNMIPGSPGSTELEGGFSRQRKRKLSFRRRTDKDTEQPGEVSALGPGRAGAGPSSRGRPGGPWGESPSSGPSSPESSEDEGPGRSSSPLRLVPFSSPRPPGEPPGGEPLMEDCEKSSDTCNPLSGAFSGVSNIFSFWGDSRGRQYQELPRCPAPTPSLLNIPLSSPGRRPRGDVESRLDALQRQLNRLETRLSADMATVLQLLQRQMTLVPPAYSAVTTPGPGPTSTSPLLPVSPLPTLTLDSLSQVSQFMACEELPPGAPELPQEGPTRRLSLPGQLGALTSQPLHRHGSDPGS

[11] = tested on: BaF3; assay: Antiproliferative activity against mouse BaF3 cells harbouring FLT3-ITD-D835Y mutant assessed as inhibition of cell growth incubated for 72 hrs by celltiter-glo luminescent cell viability assay; format: functional, cell-based; conditions: BaF3, 72 h
[12] = tested on: BaF3; assay: Antiproliferative activity against mouse BaF3 cells harbouring FLT3-D835Y mutant assessed as inhibition of cell growth incubated for 72 hrs by celltiter-glo luminescent cell viability assay; format: functional, cell-based; conditions: BaF3, 72 h
[13] = tested on: BaF3; assay: Antiproliferative activity against mouse BaF3 cells harbouring FLT3-D835V mutant assessed as inhibition of cell growth incubated for 72 hrs by celltiter-glo luminescent cell viability assay; format: functional, cell-based; conditions: BaF3, 72 h
[14] = tested on: Receptor-type tyrosine-protein kinase FLT3 (Homo sapiens), P36888 [UNDEFINED MUTATION]; assay: Inhibition of FLT3 in human MV4-11 cells harbouring FLT3-ITD mutant assessed as inhibition of ERK phosphorylation level measured after 2 hrs by Western blot analysis; format: cell-based; conditions: dose 1-1000 nM
Receptor-type tyrosine-protein kinase FLT3 (Homo sapiens), P36888 [UNDEFINED MUTATION], sequence (P36888 whole entry, looked up, change not shown): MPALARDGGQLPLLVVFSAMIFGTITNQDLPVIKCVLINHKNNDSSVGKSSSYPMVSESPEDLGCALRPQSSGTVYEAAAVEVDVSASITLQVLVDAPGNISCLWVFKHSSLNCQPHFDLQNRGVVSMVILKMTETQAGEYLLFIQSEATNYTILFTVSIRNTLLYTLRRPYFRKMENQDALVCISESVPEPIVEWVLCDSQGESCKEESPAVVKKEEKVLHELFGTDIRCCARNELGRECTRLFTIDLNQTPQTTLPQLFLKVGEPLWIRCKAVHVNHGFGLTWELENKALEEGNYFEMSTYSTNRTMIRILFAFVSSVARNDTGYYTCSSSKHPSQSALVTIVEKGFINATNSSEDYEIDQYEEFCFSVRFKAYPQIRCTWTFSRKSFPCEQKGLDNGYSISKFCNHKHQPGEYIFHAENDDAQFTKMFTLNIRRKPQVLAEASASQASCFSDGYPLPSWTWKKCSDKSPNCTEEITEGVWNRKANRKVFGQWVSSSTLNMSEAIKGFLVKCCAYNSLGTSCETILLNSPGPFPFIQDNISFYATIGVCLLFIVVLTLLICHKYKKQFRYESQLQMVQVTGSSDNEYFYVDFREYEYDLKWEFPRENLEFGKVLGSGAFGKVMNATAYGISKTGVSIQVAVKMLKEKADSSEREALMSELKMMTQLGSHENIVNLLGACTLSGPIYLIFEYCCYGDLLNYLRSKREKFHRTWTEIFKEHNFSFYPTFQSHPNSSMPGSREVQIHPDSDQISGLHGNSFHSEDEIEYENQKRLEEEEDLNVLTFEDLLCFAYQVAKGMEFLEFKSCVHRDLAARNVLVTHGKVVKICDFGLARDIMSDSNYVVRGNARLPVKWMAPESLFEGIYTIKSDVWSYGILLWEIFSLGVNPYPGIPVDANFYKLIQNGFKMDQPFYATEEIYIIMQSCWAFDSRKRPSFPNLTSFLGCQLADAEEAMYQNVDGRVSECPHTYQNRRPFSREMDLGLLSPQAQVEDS

[15] = tested on: Receptor-type tyrosine-protein kinase FLT3 (Homo sapiens), P36888 [UNDEFINED MUTATION]; assay: Inhibition of FLT3 in human MV4-11 cells harbouring FLT3-ITD mutant assessed as effect on ERK protein level at 1 to 1000 nM measured after 2 hrs by Western blot analysis; format: cell-based; conditions: dose 1-1000 nM
[16] = tested on: Receptor-type tyrosine-protein kinase FLT3 (Homo sapiens), P36888 [UNDEFINED MUTATION]; assay: Inhibition of FLT3 in human MV4-11 cells harbouring FLT3-ITD mutant assessed as effect on AKT protein level at 1 to 1000 nM measured after 2 hrs by Western blot analysis; format: cell-based; conditions: dose 1-1000 nM
[17] = biological target: Receptor-type tyrosine-protein kinase FLT3 (Homo sapiens) (UniProt P36888); assay: Inhibition of FLT3 in human MV4-11 cells harbouring FLT3-ITD mutant assessed as effect on STAT5 protein level at 1 to 1000 nM measured after 2 hrs by Western blot analysis; format: cell-based; conditions: dose 1-1000 nM
Receptor-type tyrosine-protein kinase FLT3 (Homo sapiens), sequence (P36888 whole entry): as the sequence (P36888 whole entry, looked up, change not shown) above

[18] = biological target: Platelet-derived growth factor receptor beta (Homo sapiens, UniProt P09619); assay: Inhibition of human PDGFR beta by biochemical kinase binding assay
Platelet-derived growth factor receptor beta, sequence (P09619 whole entry): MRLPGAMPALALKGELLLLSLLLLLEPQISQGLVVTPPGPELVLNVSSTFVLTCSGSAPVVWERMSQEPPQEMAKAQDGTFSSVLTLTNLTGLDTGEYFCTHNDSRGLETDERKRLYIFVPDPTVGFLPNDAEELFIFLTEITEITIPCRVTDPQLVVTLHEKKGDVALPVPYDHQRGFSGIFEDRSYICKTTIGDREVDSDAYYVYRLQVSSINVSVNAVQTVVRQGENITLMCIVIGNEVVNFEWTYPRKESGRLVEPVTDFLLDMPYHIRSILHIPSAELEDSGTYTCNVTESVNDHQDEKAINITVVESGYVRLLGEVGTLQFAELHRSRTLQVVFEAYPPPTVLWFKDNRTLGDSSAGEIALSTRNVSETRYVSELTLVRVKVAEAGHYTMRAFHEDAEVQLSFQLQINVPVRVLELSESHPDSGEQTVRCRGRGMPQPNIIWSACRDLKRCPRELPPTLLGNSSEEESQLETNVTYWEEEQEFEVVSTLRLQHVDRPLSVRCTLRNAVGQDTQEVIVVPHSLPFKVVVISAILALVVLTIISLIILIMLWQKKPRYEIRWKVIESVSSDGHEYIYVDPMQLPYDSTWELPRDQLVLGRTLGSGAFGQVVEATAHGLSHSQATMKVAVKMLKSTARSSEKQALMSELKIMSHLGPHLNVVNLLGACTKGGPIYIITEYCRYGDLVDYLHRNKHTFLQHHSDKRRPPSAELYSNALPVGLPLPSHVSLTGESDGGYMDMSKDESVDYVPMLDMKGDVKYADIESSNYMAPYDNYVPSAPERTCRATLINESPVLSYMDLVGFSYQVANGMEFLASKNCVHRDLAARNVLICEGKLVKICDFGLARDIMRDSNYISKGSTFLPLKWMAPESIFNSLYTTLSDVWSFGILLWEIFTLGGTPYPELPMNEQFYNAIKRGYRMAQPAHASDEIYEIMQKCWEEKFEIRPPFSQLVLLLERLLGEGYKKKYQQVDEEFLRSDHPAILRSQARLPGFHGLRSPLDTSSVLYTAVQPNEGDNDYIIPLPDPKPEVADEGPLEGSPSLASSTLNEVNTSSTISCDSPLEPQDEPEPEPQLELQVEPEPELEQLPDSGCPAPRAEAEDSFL

[19] = biological target: Cytochrome P450 2C19 (Homo sapiens, UniProt P33261); assay: Inhibition of CYP2C19 in human liver microsomes by UPLC-MS/MS analysis; format: ADME, Microsome
Cytochrome P450 2C19, sequence (P33261 whole entry): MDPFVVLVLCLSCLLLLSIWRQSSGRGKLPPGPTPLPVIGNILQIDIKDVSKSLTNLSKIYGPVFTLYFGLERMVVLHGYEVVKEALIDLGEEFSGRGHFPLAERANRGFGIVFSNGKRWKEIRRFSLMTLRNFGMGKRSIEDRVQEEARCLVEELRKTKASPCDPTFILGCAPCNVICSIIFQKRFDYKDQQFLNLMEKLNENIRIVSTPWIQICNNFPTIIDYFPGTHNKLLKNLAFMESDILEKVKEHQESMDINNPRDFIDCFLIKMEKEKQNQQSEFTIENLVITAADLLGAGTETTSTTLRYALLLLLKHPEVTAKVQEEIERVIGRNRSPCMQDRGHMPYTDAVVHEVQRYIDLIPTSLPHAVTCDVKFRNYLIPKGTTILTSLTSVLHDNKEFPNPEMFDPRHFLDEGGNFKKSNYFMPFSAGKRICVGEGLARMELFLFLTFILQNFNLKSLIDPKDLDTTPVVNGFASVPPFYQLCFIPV

[20] = tested on: MOLM-13; assay: Antitumor activity against human MOLM-13 cells xenografted in NOD/SCID mouse model assessed as tumor growth inhibition at […], po by caliper analysis relative to control; format: functional; conditions: dose 1.5 mg/kg/day, read-out: TGI
[21] = tested on: MOLM-13; assay: Antitumor activity against human MOLM-13 cells xenografted in NOD/SCID mouse model assessed as tumor growth inhibition at […], po in presence of Ara-C by caliper analysis relative to control; format: functional; conditions: dose 1.5 mg/kg/day, read-out: TGI
[22] = Half life in NOD/SCID mouse plasma xenografted with human MV4-11 cells at […], po measured up to 24 hrs by LC-MS/MS analysis; format: ADME, organism-based; conditions: dose 1.5 mg/kg
[23] = Half life in NOD/SCID mouse tumor xenografted with human MV4-11 cells at 0.5 mg/kg, po measured up to 24 hrs by LC-MS/MS analysis; format: ADME, organism-based, Neoplasm
[24] = Cmax in NOD/SCID mouse plasma xenografted with human MV4-11 cells at 0.5 mg/kg, po measured up to 24 hrs by LC-MS/MS analysis; format: ADME, organism-based
[25] = Cmax in NOD/SCID mouse plasma xenografted with human MV4-11 cells at […], po measured up to 24 hrs by LC-MS/MS analysis; format: ADME, organism-based; conditions: dose 1.5 mg/kg
[26] = Cmax in NOD/SCID mouse tumor xenografted with human MV4-11 cells at 0.5 mg/kg, po measured up to 24 hrs by LC-MS/MS analysis; format: ADME, organism-based, Neoplasm
[27] = Cmax in NOD/SCID mouse tumor xenografted with human MV4-11 cells at […], po measured up to 24 hrs by LC-MS/MS analysis; format: ADME, organism-based, Neoplasm; conditions: dose 1.5 mg/kg
[28] = AUC (0 to t) in NOD/SCID mouse plasma xenografted with human MV4-11 cells at 0.5 mg/kg, po measured up to 24 hrs by LC-MS/MS analysis; format: ADME, organism-based
[29] = AUC (0 to t) in NOD/SCID mouse tumor xenografted with human MV4-11 cells at 4.5 mg/kg, po measured up to 24 hrs by LC-MS/MS analysis; format: ADME, organism-based, Neoplasm
[30] = tested on: MOLM-13; assay: cells; conditions: Homo sapiens, MOLM-13, 72 h
Description: Antiproliferative activity against human MOLM-13 cells assessed as inhibition of cell growth incubated for 72 hrs by celltiter-glo luminescent cell viability assay

[31] = tested on: HL-60; assay: cells; conditions: Homo sapiens, HL-60, 72 h
Description: Antiproliferative activity against human HL-60 cells assessed as inhibition of cell growth incubated for 72 hrs by celltiter-glo luminescent cell viability assay

[32] = tested on: RPMI-8226; assay: cells; conditions: Homo sapiens, RPMI-8226, 72 h
Description: Antiproliferative activity against human RPMI-8226 cells assessed as inhibition of cell growth incubated for 72 hrs by celltiter-glo luminescent cell viability assay

[33] = tested on: PC-3; assay: cells; conditions: Homo sapiens, PC-3, 72 h
Description: Antiproliferative activity against human PC-3 cells assessed as inhibition of cell growth incubated for 72 hrs by celltiter-glo luminescent cell viability assay

[34] = tested on: DU-145; assay: cells; conditions: Homo sapiens, DU-145, 72 h
Description: Antiproliferative activity against human DU-145 cells assessed as inhibition of cell growth incubated for 72 hrs by celltiter-glo luminescent cell viability assay

[35] = tested on: OVCAR-3; assay: cells; conditions: Homo sapiens, OVCAR-3, 72 h
Description: Antiproliferative activity against human OVCAR-3 cells assessed as inhibition of cell growth incubated for 72 hrs by celltiter-glo luminescent cell viability assay

[36] = tested on: MCF7; assay: cells; conditions: Homo sapiens, MCF7, 72 h
Description: Antiproliferative activity against human MCF7 cells assessed as inhibition of cell growth incubated for 72 hrs by celltiter-glo luminescent cell viability assay

[37] = tested on: 786-0; assay: cells; conditions: Homo sapiens, 786-0, 72 h
Description: Antiproliferative activity against human 786-0 cells assessed as inhibition of cell growth incubated for 72 hrs by celltiter-glo luminescent cell viability assay

[38] = tested on: U-87 MG; assay: cells; conditions: Homo sapiens, 72 h
Description: Antiproliferative activity against human U-87 MG cells assessed as inhibition of cell growth incubated for 72 hrs by celltiter-glo luminescent cell viability assay

[39] = tested on: U-251; assay: cells; conditions: Homo sapiens, U-251, 72 h
Description: Antiproliferative activity against human U-251 cells assessed as inhibition of cell growth incubated for 72 hrs by celltiter-glo luminescent cell viability assay

[40] = tested on: BaF3; assay: cells; conditions: Mus musculus, BaF3, 72 h
[41] = tested on: BaF3; assay: cells; conditions: Mus musculus, BaF3, 72 h; remark: listed apart in the source

Tmax [1]: 4.98 min
AUC(0-t) at 24 h [2]: 4380 ng·h/mL
Cmax [3]: 633 ng/mL
half-life [4]: 377 min
clearance [5]: 11.3 mL/min/kg
half-life [6]: 445 min
bioavailability [7]: 71.9%
Tmax [8]: 4.98 min
AUClast [9]: 10100 ng·h/mL
IC50 [11]: 47.6 nM
IC50 [12]: 5.4 nM
IC50 [13]: 37.4 nM
inhibition [14]: Dose-dependent-effect
inhibition [15]: inactive
inhibition [16]: inactive
inhibition [17]: inactive
IC50 [18]: 1630 nM
IC50 [19]: > 33.3 µM
half-life at 24 h [22]: 200 min
half-life [23]: 678 min
Cmax [24]: 20.5 ng/mL
Cmax at 24 h [25]: 52.8 ng/mL
Cmax [26]: 23.3 ng/mL
Cmax at 24 h [27]: 91.9 ng/mL
AUC(0-t) at 24 h [28]: 58.9 ng·h/mL
AUC(0-t) at 24 h [29]: 4700 ng·h/mL
IC50 [30]: 1 nM
IC50 [31]: > 10 µM
IC50 [32]: > 10 µM
IC50 [33]: 7 µM
IC50 [34]: > 10 µM
IC50 [35]: > 10 µM
IC50 [36]: > 10 µM
IC50 [37]: 3.4 µM
IC50 [38]: > 10 µM
IC50 [39]: > 10 µM
IC50 [40]: 5.8 nM
IC50 [41]: 2.9 nM
SMILES: CC(C)(C)c1cc(NC(=O)Nc2ccc(C#Cc3ccc(OCCCN4CCOCC4)cc3)cc2)no1
inhibition at 30 µM [10]: 22.8%
inhibition in vivo at […] [20]: 52%
inhibition in vivo at […] [21]: 80%

From ChEMBL document CHEMBL6134864, “Discovery of FLT3-ITD Inhibitor Clifutinib: A Novel Biphenylacetylene Urea Derivative in Clinical Trials for the Treatment of Relapsed/Refractory FLT3-ITD+ Acute Myeloid Leukemia” (J Med Chem, 2025)
